From patent US20190350964A1, “ANTI-CANCER COMPOUNDS AND USES THEREOF” (NATIONAL UNIVERSITY OF SINGAPORE, priority 2016, published 2019)

How the values were obtained:
RNA-binding protein 4 = target: T1, RNA-binding protein 4 (Homo sapiens, UniProt Q9BWF3); test: MS-CETSA in normal BJ cell lysates; conditions: lysate, 100 μM compound
T1 construct: After collecting data covering >8,000 proteins in lysates of normal BJ cells; endogenous in cells; host or cells: normal BJ cells, lysate
Method: (§2) Target identification was performed by cellular thermal shift assay (CETSA) coupled with quantitative mass spectrometry. In brief, normal BJ cells were lysed by combination of freeze/thaw and mechanical shearing with needle in buffer [50 mM HEPES (pH 7.5), 5 mM β-glycerophosphate, 0.1 mM Sodium Vanadate, 10 mM MgCl2, 1 mM TCEP and 1× Protease inhibitor Cocktail]. The cell debris was removed by centrifugation at 20,000 g for 20 min at 4° C. […] Each lysate was divided into 10 aliquots for heat treatment at the respective temperatures for 3 min in a 96-well thermocycler, followed by 3 min at 4° C. The lysate was centrifuged at 20,000 g for 20 min at 4° C. and the supernatant was transferred into microtubes for MS sample preparation.
(§3) After lysis, at least 100 μg of the protein (measured with a BCA assay) was subjected to reduction, denaturation and alkylation. Samples were subsequently incubated with sequencing grade LysC (Wako) and trypsin (Promega) for digestion overnight at 37° C. The digested samples were dried using a centrifugal vacuum evaporator, solubilized in 100 mM TEAB. […]
(§4) Proteins for which a low temperature plateau was not present were deleted using a cut off >0.85 for the average reading of the first three temperature points (in our experience proteins melting already at −37° C. are more prone to give false positives in a shift analysis).

transformed BJ cells = test: FACS analysis of the cell cycle (BrdU and PI double staining); format: cell-based, human; conditions: 2.5 μM, 48 h
Method: (§1) Cell death was assessed via Annexin V and/or PI (propidium iodide) staining according to the manufacturer's instructions (eBioscience). Cell growth arrest was assessed by direct measurement of DNA synthesis through incorporation of the nucleoside analog bromodeoxyuridine (BrdU). Briefly, BrdU (30 μM, Sigma-Aldrich) was added for 2 h before harvesting cells. Cells were subsequently stained with Pacific Blue-conjugated BrdU antibody (Invitrogen) for 1 h followed by PI staining. Stained cells were analyzed by MACSQuant (MACS). Three independent experiments were performed in triplicate. The percentage of Annexin V/PI- or BrdU-positive cells was quantified using Flow Jo software (Becton Dickinson). Where indicated, the combined activity of caspase-3/7 was determined using the caspase-Glo 3/7 Assay Kit (Promega) and normalized to the number of viable cells as determined by MTT assay.

PI5P4Ks = test: Cellular PI5P4Ks activity assay in HeLa cells (PIP4KII Activity Assay Kit); format: cell-based, human; conditions: HeLa cells treated 24 h, lysate assayed with PI(5)P; read-out: IC50, combined cellular PI5P4Ks
Method: HeLa cells were treated with DMSO or compounds for 24 h. Cells were lysed with RIPA buffer (Sigma-Aldrich), and total protein concentrations were measured using a bicinchoninic acid protein assay kit (Thermo Scientific). Next, 10 μg of cell lysate was incubated with 1 μM PI(5)P and 500 nM ATP for 1 h at 37° C. PI5P4K activity was measured by recording luminescent signals (Tecan) using a PIP4KII Activity Assay Kit (Echelon) according to the manufacturer's instructions. For cell-free PI5P4Kα activity assays, serial dilutions of compounds were pre-incubated with 1 ng of PI5P4Kα (kind gift from Daiichi Sankyo Co., Ltd. and Daiichi Sankyo RD Novare Co., Ltd.) in reaction buffer [50 mM HEPES (pH 7.0), 13 mM MgCl2, 0.005% CHAPS, 0.01% BSA, 2.5 mM DTT] for 1 h at 25° C. DOPS (80 μM, Avanti polar lipids), PI(5)P (20 μM, Echelon) and ATP (10 μM, Sigma-Aldrich) were added and further incubated for 90 min at room temperature. PI5P4Kα activity was measured by recording luminescent signals (Tecan) using an ADP-Glo Kinase Assay (Promega) according to the manufacturer's protocol.

HCT15 = test: MTT cytotoxicity test (GI50); format: cell-based; conditions: Homo sapiens, HCT-15; HCT15, cancer, colon; MTT 72 h
SNU620 = test: MTT cytotoxicity test (GI50); format: cell-based; conditions: Homo sapiens; SNU620, cancer, gastric; MTT 72 h
normal BJ cells [1] = test: BrdU incorporation / cell growth arrest; format: cell-based, human
Method: as §1

MKN45 = test: MTT cytotoxicity test (GI50); format: cell-based; conditions: Homo sapiens, MKN-45; MKN45, cancer, gastric; MTT 72 h
normal BJ cells [2] = test: γ-H2AX immunofluorescence (DNA damage); format: cell-based, human; conditions: 48 h; a131 2.5 and 5 μM, etoposide 100 μM
Method: For immunofluorescence analysis, cells grown on coverglass-bottom chamber slides (Lab-Tek) were fixed with 4% PFA (paraformaldehyde) for 15 min at 25° C. The fixed cells were permeabilized with 0.5% Triton X-100 and exposed to TBS containing 0.1% Triton X-100 and 2% BSA (AbDil). The following primary antibodies were diluted in PBS containing 1% BSA and 0.1% Triton X-100: anti-γ-tubulin (Sigma-Aldrich, #T6557; 1:1000) and anti-β-tubulin (Abcam, #ab18207; 1:2000). […] Cells were counterstained with DAPI (Thermo Scientific). […] For time-lapse live-cell analysis, a Stage Top Incubator with Digital CO2 mixer (Tokai) was used, and images were acquired at 37° C.

NCC19 = test: MTT cytotoxicity test (GI50); format: cell-based; conditions: Homo sapiens; NCC19, cancer, gastric; MTT 72 h
HeLa = test: MTT cytotoxicity test (GI50); format: cell-based; conditions: Homo sapiens, cancer, others, cervix, MTT 72 h
[3] = target: T2, Phosphatidylinositol 5-phosphate 4-kinase type-2 gamma (Homo sapiens, UniProt Q8TBX8); test: MS-CETSA in normal BJ cell lysates; format: binding; conditions: lysate, 100 μM compound
T2 construct: After collecting data covering >8,000 proteins in lysates of normal BJ cells; endogenous in cells; host or cells: normal BJ cells, lysate
Method: as §2, §3, §4

[4] = tested on: Ras-driven glioma initiating cells (GICs); test: Sphere formation assay; format: cell-based, murine; conditions: 5 μM, 7 days
Method: Murine glioma-initiating cells (GICs) were established and cultured as described previously (Saga, I. et al., Neuro. Oncol. 16: 1048-1056 (2014)). Briefly, Ink4a/Arf-null neural stem/progenitor cells were transduced with human H-RasV12 and DsRed and propagated in serum-free Dulbecco modified Eagle medium (DMEM)/F12 (Sigma-Aldrich) supplemented with recombinant epidermal growth factor (EGF; PeproTech) and basic fibroblast growth factor (PeproTech) at 20 ng/ml, heparan sulfate (Sigma-Aldrich) at 200 ng/ml and B27 supplement without vitamin A (Invitrogen, Carlsbad, Calif.). GICs were dissociated and plated in 96-well plates at a density of 100 cells/well. […] Three plates were prepared for each treatment group, and 30 wells were quantified per plate. Images were acquired on a BZ-X700 inverted fluorescence microscope (Keyence). Quantification was performed by Nikon NIS-element software (n=90).

[5] = target: T3, Coproporphyrinogen-III oxidase, mitochondrial (Homo sapiens, UniProt P36551); test: MS-CETSA in normal BJ cell lysates; format: binding; conditions: lysate, 100 μM compound
T3 construct: After collecting data covering >8,000 proteins in lysates of normal BJ cells; endogenous in cells; host or cells: normal BJ cells, lysate
T3 sequence (P36551 111-454): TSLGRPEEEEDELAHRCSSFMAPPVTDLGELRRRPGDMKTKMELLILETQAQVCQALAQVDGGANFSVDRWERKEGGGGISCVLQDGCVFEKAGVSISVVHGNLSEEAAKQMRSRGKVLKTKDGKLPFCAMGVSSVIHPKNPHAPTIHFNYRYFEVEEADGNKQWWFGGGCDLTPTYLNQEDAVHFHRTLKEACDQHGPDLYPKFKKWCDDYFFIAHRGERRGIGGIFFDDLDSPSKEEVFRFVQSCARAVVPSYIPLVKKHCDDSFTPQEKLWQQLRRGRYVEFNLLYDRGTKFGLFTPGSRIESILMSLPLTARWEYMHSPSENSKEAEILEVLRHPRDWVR
Method: as §2, §3, §4

T2 sequence (Q8TBX8 whole entry): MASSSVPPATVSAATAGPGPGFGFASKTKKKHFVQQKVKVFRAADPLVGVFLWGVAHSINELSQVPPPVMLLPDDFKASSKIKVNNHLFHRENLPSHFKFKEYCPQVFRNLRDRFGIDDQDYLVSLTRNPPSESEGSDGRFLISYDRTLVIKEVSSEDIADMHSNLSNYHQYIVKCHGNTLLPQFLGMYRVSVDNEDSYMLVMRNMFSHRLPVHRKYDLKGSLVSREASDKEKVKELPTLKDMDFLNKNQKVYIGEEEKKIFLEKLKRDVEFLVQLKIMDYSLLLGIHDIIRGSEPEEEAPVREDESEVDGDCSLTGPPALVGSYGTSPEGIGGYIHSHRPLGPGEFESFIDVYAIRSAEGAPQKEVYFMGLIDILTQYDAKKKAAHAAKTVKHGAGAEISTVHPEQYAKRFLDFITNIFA
T1 sequence (Q9BWF3 whole entry): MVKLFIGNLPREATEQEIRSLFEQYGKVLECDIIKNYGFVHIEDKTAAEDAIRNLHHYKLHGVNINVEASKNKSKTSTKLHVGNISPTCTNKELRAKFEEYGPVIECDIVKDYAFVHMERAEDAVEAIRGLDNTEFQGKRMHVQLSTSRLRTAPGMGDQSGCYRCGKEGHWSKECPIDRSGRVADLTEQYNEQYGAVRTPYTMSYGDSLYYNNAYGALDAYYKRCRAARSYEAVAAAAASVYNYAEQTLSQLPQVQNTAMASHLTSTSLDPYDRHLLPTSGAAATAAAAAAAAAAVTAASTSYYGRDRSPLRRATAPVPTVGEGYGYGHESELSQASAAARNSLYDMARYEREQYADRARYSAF

For `N#C/C(=C\c1cccc2cnccc12)c1c[nH]c2ccccc12` [a131, (Z)-2-(1H-indol-3-yl)-3-(5-isoquinolyl)prop-2-enenitrile], the ED score (RNA-binding protein 4) was 0.3323, the ΔTm at 100 µM (RNA-binding protein 4; read-out: mean Delta Tm) was 1.88 °C and the “aneuploidy (>4N)” value (transformed BJ cells) was “significantly induced aneuploidy (>4N) only in transformed BJ cells”. For the same molecule, the “cell death (<2N, subG1)” value (transformed BJ cells; transformed versus normal BJ cells) was “dramatically induced cell death (<2N) through apoptosis”, the IC50 (PI5P4Ks) was 600 nM and the GI50 (HCT15) was 500 nM. The GI50 (SNU620) was 1000 nM, the “cell cycle arrest (BrdU incorporation)” value (normal BJ cells [1]; 2.5 μM, 48 h) was “arrested normal BJ cells at the G1/S phase of the cell cycle with few BrdU incorporation” and the “reversibility of growth arrest after drug removal” value (normal BJ cells [1]; 5 μM for 2 or 4 days, then fresh media up to 11 days) was “transient and reversible after a131 removal”. The GI50 (MKN45) was 1000 nM, the “DNA damage (γ-H2AX staining)” value (normal BJ cells [2]) was “did not do so” and the GI50 (NCC19) was 4600 nM. It also gave a GI50 (HeLa) of 1400 nM, an ED score [3] of 0.5989 and a ΔTm at 100 µM ([3]; read-out: mean Delta Tm) of 2.89 °C. The “growth of GICs in tumor spheroid culture” value [4] was “significantly suppressed growth”, the ED score [5] was 0.3274 and the ΔTm at 100 µM ([5]; read-out: mean Delta Tm) was 1.61 °C.
